From patent US20080194590A1, “4-Piperazinylthieno [2,3-D] Pyrimidine Compounds as Platelet Aggregation Inhibitors” (Pfizer Inc, priority 2005, published 2008)
Values joined by “and” are separate entries in the source; they are usually repeats but may differ in a detail not shown here. Identical values can stand only once.

Experiments:
P2Y12 receptor [1] = target: T1, P2Y12 receptor (Homo sapiens, UniProt Q9H244); experiment: Human P2Y12 recombinant cell membrane binding assay with 33P 2MeS-ADP (Assay 3); parameters: expressed in transfected cells; host or cells: HEK cells; conditions: highest concentration tested 1 μM; read-out: [33P]-2MeS-ADP Binding to Recombinant Human P2Y12 Membranes (Assay 3) % Inhibition
P2Y12 receptor [2] = target: T1, P2Y12 receptor; experiment: as above; parameters: expressed in transfected cells; host or cells: HEK cells; conditions: for IC50 / Ki: HEK cell membranes expressing P2Y12, multiple lines = multiple runs; for [33P]-2MeS-ADP Binding to Recombinant Human P2Y12 Membranes (Assay 3) % Inhibition / inhibition at 10 µM: highest concentration tested 10 μM; for inhibition at 10 µM: read-out: [33P]-2MeS-ADP Binding to Recombinant Human P2Y12 Membranes (Assay 3) % Inhibition
Method: 3. Human P2Y12 Recombinant Cell Membrane Binding Assay with ^33P 2MeS-ADP.
The ability of a test compound to bind to the P2Y12 receptor was evaluated in a recombinant cell membrane binding assay. In this competitive binding assay, the test compound competed against a radiolabelled agonist for binding to the P2Y12 receptor, expressed on the cell membrane. Inhibition of binding of the labeled material was measured and correlated to the amount and potency of the test compound. Data from this assay are presented in Table F. This binding assay is a modification of the procedure in Takasaki, J. et. al, Mol. Pharmacol., 2001, Vol. 60, pg. 432.
HEK cells were transfected with the pDONR201P2Y12 vector and cultured in MEM with GlutaMAX I, Earle's salts, 25 mM HEPES (Gibco # 42360-032) containing 10% dialyzed FBS (Gibco # 26400-044), 100 μM nonessential amino acids (Gibco # 11140-050), 1 mM sodium pyruvate (Gibco # 11360-070), 0.05% geneticin (Gibco #10131-027), 3 μg/mL blasticidin (Fluka brand from Sigma # 15205), and 0.5 μg/mL puromycin (Sigma # P-8833).
Confluent cells were washed once with cold DPBS (Gibco # 14190-136). Fresh DPBS was added and the cells were scraped and centrifuged at 500×g for 5 minutes at 4° C. The cell pellets were resuspended in TEE buffer (25 mM Tris, 5 mM EDTA, 5 mM EGTA) containing 1 protease inhibitor cocktail tablet (Roche # 1 873 580) per 50 mL (called TEE+Complete) and can be flash frozen at this point.
In one embodiment, frozen cell pellets were used to prepare the membranes. In that embodiment, the frozen cell pellets were thawed on ice. In another embodiment, cell pellets may be used without flash freezing before moving on to the next step.
Cell pellets were resuspended in TEE buffer+Complete and homogenized in a glass dounce for 12 strokes. The cell suspension was centrifuged at 500×g for 5 minutes at 4° C. The supernatant was saved and centrifuged at 20,000×g for 20 minutes at 4° C. This supernatant was discarded and the cell pellet resuspended in TEE buffer+Complete and homogenized in a glass dounce for 12 strokes. This suspension was centrifuged at 20,000×g for 20 minutes at 4° C. and the supernatant discarded. The pellet was resuspended in assay buffer (50 mM Tris, 100 mM NaCl, 1 mM EDTA) containing one protease inhibitor cocktail tablet per 50 mL, and can be flash frozen as 1 mL aliquots at this point.
Dry compounds were diluted as 10 mM DMSO stocks and tested in a seven-point, three-fold dilution series run in triplicate beginning at 10 μM, final concentration. A 1 mM DMSO intermediate stock was made in a dilution plate and from this the seven dilutions were made to 5× the final concentration in assay buffer containing 0.02% BSA.
To a polypropylene assay plate (Costar # 3365) the following were added: a) 30 μL of assay buffer containing one protease inhibitor cocktail tablet per 50 mL; b) 30 μL of 1 nM ^33P 2MeS-ADP made in assay buffer containing 0.02% BSA and 12.5 mg/mL ascorbic acid; 30 μL of cold 1.5 μM 2MeS-ADP for the positive control wells, or assay buffer containing 0.02% BSA and 12.5 mg/mL ascorbic acid for the negative control wells, or 5× drug dilution; and 60 μL of 1 ug/well membranes.
The plates were incubated at room temperature for 1 hour. The reaction was stopped using a cell harvester to transfer the reaction mixture onto GF/B UniFilter plates (Perkin Elmer # 6005177), and washed three times with wash buffer (50 mM Tris), filtering between each wash. The filter plates were dried for approximately 20 minutes in an oven at 50° C. Back seals were adhered to the filter plates and 25 uL of Microscint 20 scintillation fluid (Perkin Elmer # 6013621) were added. The filter plates were sealed, shaken for 30 minutes, and counted on a Top Count. Data were analyzed using a four-parameter curve fit with a fixed minimum and maximum experimentally defined as the average positive and negative controls on each plate, and with a hill slope equal to one.

P2Y12 receptor [3] = target: T1, P2Y12 receptor; experiment: Inhibition of [33P]2MeS-ADP binding to washed human platelet membranes (Assay 1); parameters: the P2Y12 receptor, which is found on the surface of platelets; tissue Interstate Blood bank, Memphis, Tenn; host or cells: human platelets from platelet rich plasma; conditions: for inhibition at 10 µM: highest concentration tested 10 μM; for IC50: washed human platelet membranes
Method: 1. Inhibition of [^33P]2MeS-ADP Binding to Washed Human Platelet Membranes. The ability of a test compound to bind to the P2Y12 receptor was evaluated in a platelet membrane binding assay. In this competitive binding assay, the test compound competed against a radiolabelled agonist for binding to the P2Y12 receptor, which is found on the surface of platelets. Inhibition of binding of the labeled material was measured and correlated to the amount and potency of the test compound. Data from this assay are presented in Table F. Platelet rich plasma (“PRP”) was obtained from the Interstate Blood bank, Memphis, Tenn. Platelet rich plasma was prepared from blood units collected in ACD ((prepared by (1) combining: 2.5 g sodium citrate (Sigma S-4641); 1.5 g citric acid (Sigma C-0706); and, 2.0 g dextrose (Sigma G-7528); (2) bringing pH to 4.5; and (3) adding water to bring volume to 100 mL) and using the light spin protocol; this protocol involves centrifugation at room temperature for approximately 20 minutes at speeds up to 160×g. Platelet rich plasma is supplied in units of approximately 200 ml. Each unit is distributed into four 50 mL polypropylene conical tubes for centrifugation, Blood from each donor is maintained separately.
The 50 mL tubes were centrifuged for 15 minutes at 1100 rpm in Sorvall RT6000D (with H1000B rotor). Internal centrifuge temperature was maintained at approximately room temperature (22-24° C.). This spin pelleted cellular components remaining from the PRP preparation. The supernatant was decanted into fresh 50 mL tubes. To avoid carry over of cellular components following the room temperature centrifugation, approximately 5 mL of PRP was left in the tube and discarded. The tubes were capped and inverted 2-3 times and allowed to stand at room temperature for at least 15 minutes following inversion.
Optionally, a Coulter Counter may be used to count platelets from the resting samples during the resting phase. Normal human platelet counts are expected to range from 200,000 to 400,000 per μL of PRP supernatant.
The 50 mL tubes containing PRP supernatant were centrifuged for 15 minutes at 2300-2400 rpm to loosely pellet the platelets. The supernatant from this spin was decanted immediately into a clean cell culture bottle (Corning bottle) and saved in case further centrifugation was needed. The pellet of each tube was resuspended in 2-4 mL of Wash buffer (pH 6.5) (1 L prepared new daily—134 mM NaCl (Sigma S-5150); 3 mM KCl (Sigma P-9333); 1 mM CaCl2 (JT Baker 1311-01); 2 mM MgCl2 (Sigma M-2670); 5 mM glucose (EM 4074-2); 0.3 mM NaH2PO4 (Sigma S-9638)/12 mM NaHCO3 (J T Baker 3506-01); 5 mM HEPES pH 7.4 (Gibco 12379-012); 0.35% BSA (Sigma A-7906); 330 mg Heparin (bovine lung, Sigma H-4898); and 30 mL of ACD) by repeated gentle aspiration using disposable polypropylene sample pipettes.
Wash buffer (pH 6.5) was added to each tube to bring the volume to approximately 40 mL. Each tube was incubated for at least 15 minutes at 37° C.
The tubes were then centrifuged again for 15 minutes at 2300-2400 rpm to loosely pellet the platelets. The supernatant was decanted and discarded. The pellet was resuspended in 2-4 mL of Assay buffer (pH 7.4) (1 L volume—134 mM NaCl; 3 mM KCl; 1 mM CaCl2; 2 mM MgCl2; 5 mM glucose; 0.3 mM NaH2PO4/12 mM NaHCO3; 5 mM HEPES pH 7.4; and 0.35% BSA) by repeated aspiration using disposable polypropylene sample pipettes.
The pooled platelet preparation was counted using a Coulter Counter. The final concentration of platelets was brought to 1×10^6 per μL using Assay buffer pH 7.4. The platelets were rested for a minimum of 45 minutes at 37° C. before use in the assay.
In one embodiment, the compounds were tested in 96-well microtiter filterplates (Millipore Multiscreen-FB opaque plates, #MAFBNOB50). These plates were used in the assay and pre-wet with 50 μL of Assay buffer pH 7.4 then filtered through completely with a Millipore plate vacuum. […]

T1 sequence (Q9H244 whole entry): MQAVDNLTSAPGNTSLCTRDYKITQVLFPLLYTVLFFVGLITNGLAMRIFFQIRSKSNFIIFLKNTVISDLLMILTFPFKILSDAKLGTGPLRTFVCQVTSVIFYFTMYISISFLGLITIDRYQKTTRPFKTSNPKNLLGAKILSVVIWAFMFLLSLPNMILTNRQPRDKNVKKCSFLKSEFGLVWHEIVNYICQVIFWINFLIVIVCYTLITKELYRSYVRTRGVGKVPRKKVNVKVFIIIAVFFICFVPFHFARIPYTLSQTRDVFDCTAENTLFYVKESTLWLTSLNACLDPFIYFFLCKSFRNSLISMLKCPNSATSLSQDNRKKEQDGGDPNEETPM

Row | Structure (SMILES) | inhibition at 1 µM (P2Y12 receptor [1]) [%] | IC50 (P2Y12 receptor [2]) | Ki (P2Y12 receptor [2]) | [33P]-2MeS-ADP Binding to Recombinant Human P2Y12 Membranes (Assay 3) % Inhibition (P2Y12 receptor [2]) [%] | inhibition at 10 µM (P2Y12 receptor [2]) [%] | inhibition at 10 µM (P2Y12 receptor [3]) [%] | IC50 (P2Y12 receptor [3]) [nM]
1 | CCc1cc2c(N3CCN(C(=O)c4ccc(-c5ccccc5)cc4)CC3)nc(NC[C@@H](O)CO)nc2s1 [Example 27, (2R)-3-({4-[4-(1,1′-biphenyl-4-ylcarbonyl)piperazin-1-yl]-6-ethylthieno[2,3-d]pyrimidin-2-yl}amino)propane-1,2-diol] | 92 | 10 nM and 48 nM and 43 nM | 10 nM and 28 nM and 25 nM | 93.86 | 100 | – | –
2 | CCc1cc2c(N3CCN(C(=O)c4ccc(-c5ccccc5)cc4)CC3)nc(NC[C@H](O)CO)nc2s1 [Example 26, (2S)-3-({4-[4-(1,1′-biphenyl-4-ylcarbonyl)piperazin-1-yl]-6-ethylthieno[2,3-]pyrimidin-2-yl}amino)propane-1,2-diol] | 90 | 20 nM and 61 nM and 47 nM | 10 nM and 35 nM and 27 nM | 94.85 | 98.6 | – | –
3 | CCc1cc2c(N3CCN(C(=O)c4cccc(-c5ccccc5)c4)CC3)nc(NC[C@H](O)CO)nc2s1 [Example 29, (2S)-3-({4-[4-(1,1′-biphenyl-3-ylcarbonyl)piperazin-1-yl]-6-ethylthieno[2,3-d]pyrimidin-2-yl}amino)propane-1,2-diol] | 89 | 68 nM and 50 nM and 132 nM | 36 nM and 30 nM and 76 nM | 93.19 | 97.3 | – | –
4 | CCc1cc2c(N3CCN(C(=O)c4cccc(-c5ccccc5)c4)CC3)nc(NC[C@@H](O)CO)nc2s1 [Example 30, (2R)-3-({4-[4-(1,1′-biphenyl-3-ylcarbonyl)piperazin-1-yl]-6-ethylthieno[2,3-d]pyrimidin-2-yl}amino)propane-1,2-diol] | 88 | 63 nM and 80 nM and 105 nM | 33 nM and 50 nM and 61 nM | 96.44 | 97.7 | – | –
5 | CCc1cc2c(N3CCN(C(=O)c4ccc(-c5ccccc5)cc4)CC3)nc(NC(CO)CO)nc2s1 [Example 31, 2-({4-[4-(1,1′-biphenyl-4-ylcarbonyl)piperazin-1-yl]-6-ethylthieno[2,3-d]pyrimidin-2-yl}amino)propane-1,3-diol] | 93 | 21 nM | 12 nM | – | – | – | –
6 | CCc1cc2c(N3CCN(C(=O)Cc4ccccc4)CC3)nc(NCCO)nc2s1 [Example 11, 2-({6-Ethyl-4-[4-(phenylacetyl)piperazin-1-yl]thieno[2,3-d]pyrimidin-2-yl}amino)ethanol] | 51 | 1130 nM and 1190 nM and 905 nM | 650 nM and 687 nM and 905 nM | 82.93 | 76.7 | – | –
7 | CCc1cc2c(N3CCN(C(=O)Cc4ccccc4)CC3)nc(NCc3ccccc3)nc2s1 [Example 15, N-benzyl-6-ethyl-4-[4-(phenylacetyl)piperazin-1-yl]thieno[2,3-d]pyrimidin-2-amine] | – | – | – | – | – | 44 | > 10000
8 | CCc1cc2c(N3CCN(C(=O)Cc4ccccc4)CC3)nc(NCc3cccc(F)c3)nc2s1 [Example 14, 6-Ethyl-N-(3-fluorobenzyl)-4-[4-(phenylacetyl)piperazin-1-yl]thieno[2,3-d]pyrimidin-2-amine] | – | – | – | – | – | 39.9 | > 10000
